Key:
[1] = test system: barnyardgrass; assay: Test C preemergence; assay type: in vivo, Echinochloa crusgalli; details: 0 to 100 scale (0 no effect, 100 complete control); for Plant response rating, Barnyardgrass: Preemergence, 500 g ai/ha, visual rating after 10 days; for Barnyardgrass plant response rating: preemergence, 125 g ai/ha
In short: (§1)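 Visual injury score, 0–100 (100 = complete control), taken 10 days after treatment relative to untreated controls. Pre: directed spray onto soil over sown seeds. Post: foliar spray at one- to two-leaf stage, 2–10 cm. Solvent/surfactant formulation; loam–sand soil; greenhouse.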

[2] = test system: blackgrass; assay: Test C preemergence; assay type: in vivo, Alopecurus myosuroides; details: 0 to 100 scale (0 no effect, 100 complete control); for Plant response rating, Blackgrass: Preemergence, 500 g ai/ha, visual rating after 10 days; for Blackgrass plant response rating: Test C, preemergence, 125 g ai/ha
In short: as §1

[3] = test system: corn; assay: Test C preemergence; assay type: in vivo, Zea mays; details: 0 to 100 scale (0 no effect, 100 complete control); for Plant response rating, Corn: Preemergence, 500 g ai/ha, visual rating after 10 days; for Corn plant response rating: Test C, preemergence, 125 g ai/ha
In short: as §1

[4] = test system: green foxtail; assay: Test C preemergence; assay type: in vivo, Setaria viridis; details: 0 to 100 scale (0 no effect, 100 complete control); for Plant response rating, Foxtail, Green: Preemergence, 500 g ai/ha, visual rating after 10 days; for Foxtail, Green plant response rating: Test C, preemergence, 125 g ai/ha
In short: as §1

[5] = test system: kochia; assay: Test C preemergence; assay type: in vivo, Bassia scoparia; details: 0 to 100 scale (0 no effect, 100 complete control); for Plant response rating, Kochia: Preemergence, 500 g ai/ha, visual rating after 10 days; for Kochia plant response rating: Test C, preemergence, 125 g ai/ha
In short: as §1

[6] = test system: oat, wild; assay: Test C preemergence; assay type: in vivo, Avena fatua; details: 0 to 100 scale (0 no effect, 100 complete control); for Plant response rating, Oat, Wild: Preemergence, 500 g ai/ha, visual rating after 10 days; for Oat, Wild plant response rating: Test C, preemergence, 125 g ai/ha
In short: as §1

[7] = test system: pigweed, palmer; assay: Test C preemergence; assay type: in vivo, Amaranthus palmeri; details: 0 to 100 scale (0 no effect, 100 complete control); for Plant response rating, Pigweed, Palmer: Preemergence, 500 g ai/ha, visual rating after 10 days; for Pigweed, Palmer plant response rating: Test C, preemergence, 125 g ai/ha
In short: as §1

[8] = test system: ragweed; assay: Test C preemergence; assay type: in vivo, Ambrosia artemisiifolia; details: 0 to 100 scale (0 no effect, 100 complete control); for Plant response rating, Ragweed: Preemergence, 500 g ai/ha, visual rating after 10 days; for Ragweed plant response rating: Test C, preemergence, 125 g ai/ha
In short: as §1

[9] = test system: ryegrass, Italian; assay: Test C preemergence; assay type: in vivo, Lolium multiflorum; details: 0 to 100 scale (0 no effect, 100 complete control); for Plant response rating, Ryegrass, Italian: Preemergence, 500 g ai/ha, visual rating after 10 days; for Ryegrass, Italian plant response rating: Test C, preemergence, 125 g ai/ha
In short: as §1

[10] = test system: soybean; assay: Test C preemergence; assay type: in vivo, Glycine max; details: 0 to 100 scale (0 no effect, 100 complete control); for Plant response rating, Soybean: Preemergence, 500 g ai/ha, visual rating after 10 days; for Soybean plant response rating: Test C, preemergence, 125 g ai/ha
In short: as §1

[11] = test system: wheat; assay: Test C preemergence; assay type: in vivo, Triticum aestivum; details: 0 to 100 scale (0 no effect, 100 complete control); for Plant response rating, Wheat: Preemergence, 500 g ai/ha, visual rating after 10 days; for Wheat plant response rating: Test C, preemergence, 125 g ai/ha
In short: as §1

[12] = test system: barnyardgrass; assay: Test C postemergence; assay type: in vivo, Echinochloa crusgalli; details: 10 days
In short: as §1

[13] = test system: blackgrass; assay: Test C postemergence; assay type: in vivo, Alopecurus myosuroides; details: 10 days
In short: as §1

[14] = test system: corn; assay: Test C postemergence; assay type: in vivo, Zea mays; details: 10 days
In short: as §1

[15] = test system: green foxtail; assay: Test C postemergence; assay type: in vivo, Setaria viridis; details: 10 days
In short: as §1

[16] = test system: kochia; assay: Test C postemergence; assay type: in vivo, Bassia scoparia; details: 10 days
In short: as §1

[17] = test system: oat, wild; assay: Test C postemergence; assay type: in vivo, Avena fatua; details: 10 days
In short: as §1

[18] = test system: pigweed, palmer; assay: Test C postemergence; assay type: in vivo, Amaranthus palmeri; details: 10 days
In short: as §1

[19] = test system: ragweed; assay: Test C postemergence; assay type: in vivo, Ambrosia artemisiifolia; details: 10 days
In short: as §1

[20] = test system: ryegrass, Italian; assay: Test C postemergence; assay type: in vivo, Lolium multiflorum; details: 10 days
In short: as §1

[21] = test system: soybean; assay: Test C postemergence; assay type: in vivo, Glycine max; details: 10 days
In short: as §1

[22] = test system: wheat; assay: Test C postemergence; assay type: in vivo, Triticum aestivum; details: 10 days
In short: as §1

[23] = test system: galium; assay: Test C postemergence; assay type: in vivo, Galium aparine; details: 10 days
In short: as §1

[24] = test system: horseweed; assay: Test C postemergence; assay type: in vivo, Erigeron canadensis; details: 10 days
In short: as §1

[25] = test system: barnyardgrass; assay: Test D flooded paddy test; assay type: in vivo, Echinochloa crus-galli; details: 250 g ai/ha, applied to paddy water, visual rating after 13 to 14 days, scale 0 to 100 (0 no effect, 100 complete control)
In short: (§2)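 2-leaf plants; flood 3 cm above soil; compound dosed into paddy water; greenhouse 13–14 d; visual rating vs controls, 0–100 (100 = complete control); dash = not tested.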

[26] = test system: ducksalad; assay: Test D flooded paddy test; assay type: in vivo, Heteranthera limosa; details: 250 g ai/ha, applied to paddy water, visual rating after 13 to 14 days, scale 0 to 100 (0 no effect, 100 complete control)
In short: as §2

[27] = test system: rice; assay: Test D flooded paddy test; assay type: in vivo, Oryza sativa; details: 250 g ai/ha, applied to paddy water, visual rating after 13 to 14 days, scale 0 to 100 (0 no effect, 100 complete control)
In short: as §2

[28] = test system: sedge, umbrella; assay: Test D flooded paddy test; assay type: in vivo, Cyperus difformis; details: 250 g ai/ha, applied to paddy water, visual rating after 13 to 14 days, scale 0 to 100 (0 no effect, 100 complete control)
In short: as §2

[29] = 125 g ai/ha, postemergence, 0 to 100 scale, 0 no effect, 100 complete control
[30] = Postemergence, 500 g ai/ha, visual 0 to 100 scale (0 no effect, 100 complete control)

## Cc1ccc(-n2cnc(C(C)C)n2)cc1C(=O)N1C[C@H](C)Oc2c(F)cccc21 [Compound 242]
[1]
  Plant response rating, Barnyardgrass: 100
[1]; Test C
  Barnyardgrass plant response rating: 100
[2]
  Plant response rating, Blackgrass: 90
  Blackgrass plant response rating: 90
[3]
  Plant response rating, Corn: 70
  Corn plant response rating: 30
[4]
  Plant response rating, Foxtail, Green: 100
  Foxtail, Green plant response rating: 100
[5]
  Plant response rating, Kochia: 100
  Kochia plant response rating: 90
[6]
  Plant response rating, Oat, Wild: 90
  Oat, Wild plant response rating: 90
[7]
  Plant response rating, Pigweed, Palmer: 100
  Pigweed, Palmer plant response rating: 100
[8]
  Plant response rating, Ragweed: 100
  Ragweed plant response rating: 0
[9]
  Plant response rating, Ryegrass, Italian: 100
  Ryegrass, Italian plant response rating: 100
[10]
  Plant response rating, Soybean: 100
  Soybean plant response rating: 90
[11]
  Plant response rating, Wheat: 90
  Wheat plant response rating: 60
[12]; [29]
  Plant response rating, Barnyardgrass: 90
[12]; [30]
  Plant response rating, Barnyardgrass: 100
[13]; [29]
  Plant response rating, Blackgrass: 80
[13]; [30]
  Plant response rating, Blackgrass: 100
[14]; [29]
  Plant response rating, Corn: 60
[14]; [30]
  Plant response rating, Corn: 90
[15]; [29]
  Plant response rating, Foxtail, Green: 80
[15]; [30]
  Plant response rating, Foxtail, Green: 90
[16]; [29]
  Plant response rating, Kochia: 30
[16]; [30]
  Plant response rating, Kochia: 80
[17]; [29]
  Plant response rating, Oat, Wild: 80
[17]; [30]
  Plant response rating, Oat, Wild: 90
[18]; [29]
  Plant response rating, Pigweed, Palmer: 80
[18]; [30]
  Plant response rating, Pigweed, Palmer: 90
[19]; [29]
  Plant response rating, Ragweed: 60
[19]; [30]
  Plant response rating, Ragweed: 90
[20]; [29]
  Plant response rating, Ryegrass, Italian: 90
[20]; [30]
  Plant response rating, Ryegrass, Italian: 100
[21]; [29]
  Plant response rating, Soybean: 100
[21]; [30]
  Plant response rating, Soybean: 100
[22]; [29]
  Plant response rating, Wheat: 80
[22]; [30]
  Plant response rating, Wheat: 90
[23]; [29]
  Plant response rating, Galium: 100
[23]; [30]
  Plant response rating, Galium: 100
[24]; [29]
  Plant response rating, Horseweed: 50
[24]; [30]
  Plant response rating, Horseweed: 80
[25]
  Plant response rating, Barnyardgrass (Flood): 55
[26]
  Plant response rating, Ducksalad (Flood): 95
[27]
  Plant response rating, Rice (Flood): 15
[28]
  Plant response rating, Sedge, Umbrella (Flood): 98

## CCn1cnc(-c2cccc(C(=O)N3C[C@H](C)Oc4c(C)cccc43)c2)n1 [Compound 165]
[1]
  Barnyardgrass plant response rating: 0
  Plant response rating, Barnyardgrass: 0
[2]
  Plant response rating, Blackgrass: 0
  Blackgrass plant response rating: 0
[3]
  Plant response rating, Corn: 0
  Corn plant response rating: 0
[4]
  Plant response rating, Foxtail, Green: 0
  Foxtail, Green plant response rating: 0
[5]
  Plant response rating, Kochia: 0
  Kochia plant response rating: 0
[6]
  Plant response rating, Oat, Wild: 0
  Oat, Wild plant response rating: 0
[7]
  Plant response rating, Pigweed, Palmer: 0
  Pigweed, Palmer plant response rating: 0
[8]
  Plant response rating, Ragweed: 20
  Ragweed plant response rating: 0
[9]
  Plant response rating, Ryegrass, Italian: 0
  Ryegrass, Italian plant response rating: 0
[10]
  Plant response rating, Soybean: 0
  Soybean plant response rating: 0
[11]
  Plant response rating, Wheat: 0
  Wheat plant response rating: 0
[12]; [29]
  Plant response rating, Barnyardgrass: 0
[12]; [30]
  Plant response rating, Barnyardgrass: 10
[13]; [29]
  Plant response rating, Blackgrass: 0
[13]; [30]
  Plant response rating, Blackgrass: 10
[14]; [29]
  Plant response rating, Corn: 0
[14]; [30]
  Plant response rating, Corn: 0
[15]; [29]
  Plant response rating, Foxtail, Green: 0
[15]; [30]
  Plant response rating, Foxtail, Green: 0
[16]; [29]
  Plant response rating, Kochia: 0
[16]; [30]
  Plant response rating, Kochia: 0
[17]; [29]
  Plant response rating, Oat, Wild: 0
[17]; [30]
  Plant response rating, Oat, Wild: 0
[18]; [29]
  Plant response rating, Pigweed, Palmer: 0
[18]; [30]
  Plant response rating, Pigweed, Palmer: 10
[19]; [29]
  Plant response rating, Ragweed: 0
[19]; [30]
  Plant response rating, Ragweed: 0
[20]; [29]
  Plant response rating, Ryegrass, Italian: 0
[20]; [30]
  Plant response rating, Ryegrass, Italian: 0
[21]; [29]
  Plant response rating, Soybean: 30
[21]; [30]
  Plant response rating, Soybean: 30
[22]; [29]
  Plant response rating, Wheat: 0
[22]; [30]
  Plant response rating, Wheat: 0
[23]; [29]
  Plant response rating, Galium: 0
[23]; [30]
  Plant response rating, Galium: 0
[24]; [29]
  Plant response rating, Horseweed: 0
[24]; [30]
  Plant response rating, Horseweed: 60
[25]
  Plant response rating, Barnyardgrass (Flood): 0
[26]
  Plant response rating, Ducksalad (Flood): 0
[27]
  Plant response rating, Rice (Flood): 0
[28]
  Plant response rating, Sedge, Umbrella (Flood): 0
